According to US8936916B2, “Polypeptides for microbial detection” (3M Innovative Properties Company, priority 2008, dated 2015):
Ends that are not written are not given here.

How the values were obtained:
[1] = as the pH drops from 7; cited from earlier work
[2] = Permeabilization of DPPC liposomes containing glucose oxidase (glucose oxidase/HRP colour reaction, scanned image); type: biochemical; settings: for Relative glucose oxidase activity (integrated digital values): DPPC; for Color apparent in the well: 30 minutes at room temperature
Description: (§1) The formation of a pore allows glucose into the liposome where it reacts with glucose oxidase to generate hydrogen peroxide. The hydrogen peroxide reacts with HRP, 4-AAP and TOOS (all outside the liposome) to generate an intense purple color.
(§2) The ability of the phosphorylated phylloxin to open liposomes in the presence of phosphatase was tested by preparing a developing solution of 0.5 mg/mL TOOS (3-(N-Ethyl-3-methylanilino)-2-hydroxypropanesulfonic acid sodium salt) (Sigma-Aldrich, St. Louis, Mo.), 1.0 mg/mL 4-AAP (4-amino-antipyrene) (Sigma-Aldrich), 12.5 mg/mL glucose and 0.0001 mg/mL HRP (horseradish peroxidase) (Pierce Biotechnology, Rockford, Ill.) in 50 mM TES.
(§3) 200 μL of this solution was placed in one well of 96-well plate containing 10 μL (0.004 mg/mL) of a DPPC liposome suspension. A second well was prepared similarly and 10 μL (0.3 mg/mL) of phylloxin solution in TES was also added. A third well was prepared similar to the second well. Alkaline phosphatase (10 μL at 2.5 mg/mL in TES) was added to the third well to a final concentration of 0.11 mg/mL. A similar set of wells was prepared with DOPC/cholesterol liposomes at the same concentration.
(§4) A weaker color was apparent in the well with DPPC liposomes, phylloxin and phosphatase, and weaker again in the well with DPPC liposomes and phylloxin. The remaining wells were essentially colorless. The image was recorded on an HP scanner and analyzed using an AlphaImager (Alpha Innotech, San Leandro, Calif.). The integrated digital values at 30 minutes are shown in Table 1 below, and at two hours in Table 2.

[3] = Permeabilization of DOPC/cholesterol liposomes containing glucose oxidase (glucose oxidase/HRP colour reaction, scanned image); type: biochemical; settings: for Relative glucose oxidase activity (integrated digital values): DOPC/Cholesterol
Description: as §1, §2, §3, §4

[4] = Permeabilization of DPPC liposomes containing glucose oxidase by phosphorylated dermatoxin (absorbance at 538 nm); type: biochemical; settings: Positive Control
Description: DPPC liposomes containing 5 mg/mL glucose oxidase were prepared as described in Example 2. Glucose oxidase activity was measured in a coupled enzyme reaction with horseradish peroxidase as described in Example 2. The various solutions were quickly added to each of the wells of a microplate using a multichannel pipette and the reactions were started (at T=0 hours) with the addition to the wells of a solution containing glucose and 4-AAP.
The ability of the phosphorylated dermatoxin to open liposomes in the presence of phosphatase was tested by preparing a developing solution as described in Example 2. One hundred-fifty microliters of the developing solution was placed in each well of a 96-well microplate. To each column in the plate was added 20 μL of TES buffer containing one of the following concentrations of unpurified dermatoxin: 3.3 mg/mL, 3.3×10^−1 mg/mL, 3.3×10^−2 mg/mL, 3.3×10^−3 mg/mL, 3.3×10^−4 mg/mL, 3.3×10^−5 mg/mL, 3.3×10^−6 mg/mL, or 3.3×10^−7 mg/mL. Negative control wells contained TES buffer with no dermatoxin. Positive control wells buffer contained TES buffer with Triton X-100. Ten-microliter aliquots of the following concentrations of DPPC liposomes (containing 5 mg/mL glucose oxidase) were added to wells in duplicate rows: 0.1 mg lipid/mL, 0.02 mg lipid/mL, 0.004 mg lipid/mL, or plain buffer. To one of the duplicate rows was added 20 μL of 2.5 mg/mL alkaline phosphatase in TES. The other duplicate row received 20 μL of TES buffer. Thus the final dermatoxin concentration in the well varied from […], and the final lipid concentration in the well ranged from 0.005 mg lipid/mL to 2.0×10^−4 mg lipid/mL.
The absorbance was recorded at 538 nm on a SpectraMax M5 plate reader (Molecular Devices, Sunnyvale, Calif.) after two hours incubation at room temperature, and also after overnight incubation (approximately 18 hours). Since the absorbance of several wells was saturated, the overnight samples were diluted 1:10 with 50 mmol TES and the absorbance of the diluted samples was measured.

[5] = 2-hour incubation, liposome + peptide
[6] = 2-hour incubation, liposome + peptide + phosphatase
[7] = 30-minute incubation, liposome + peptide
[8] = 30-minute incubation, liposome + peptide + phosphatase

Substance: GALA
- pH at which the cytolytic peptide becomes activated [1]: about 5.0

Substance: GWMSKIASGIGTFLSGMQQ (GWMSKIASGIGTFLSGMQQ-NH2; not fully specified (residues 4, 8, 12, 15, N-terminus); also: phosphorylated) [Tetraphosphorylated Phylloxin, fully phosphorylated phylloxin made by Fmoc synthesis on Rink amide resin, HPLC purified]
- Relative glucose oxidase activity (integrated digital values) [2, 5]: 173670
- Relative glucose oxidase activity (integrated digital values) [2, 6]: 217620
- Relative glucose oxidase activity (integrated digital values) [2, 7]: 84996
- Relative glucose oxidase activity (integrated digital values) [2, 8]: 97588
- Color apparent in the well ([2]; DPPC liposomes and phylloxin, no phosphatase): weaker again
- Color apparent in the well ([2]; DPPC liposomes, phylloxin and phosphatase): weaker color
- Phosphatase-dependent opening of liposomes ([2]; DPPC liposomes, with versus without alkaline phosphatase): still an effect, but it is not so pronounced
- Relative glucose oxidase activity (integrated digital values) [3, 5]: 128550
- Relative glucose oxidase activity (integrated digital values) [3, 6]: 299950
- Relative glucose oxidase activity (integrated digital values) [3, 7]: 67680
- Relative glucose oxidase activity (integrated digital values) [3, 8]: 184416
- Color apparent in the well ([3]; 30 minutes at room temperature, DOPC/cholesterol liposomes, phylloxin and phosphatase): dark purple color
- Opening of liposomes ([3]; DOPC/cholesterol liposomes, in the absence of alkaline phosphatase): little effect
- Opening of liposomes ([3]; DOPC/cholesterol liposomes, in the presence of alkaline phosphatase): rapidly opens liposomes

Substance: Triton X-100 [Positive Control, reference compound]
- Absorbance at 538 nm (cytolytic peptide activity) ([4]; 2 hrs, lipid conc. 0, with phosphatase): 2.272 absorbance units
- Absorbance at 538 nm (cytolytic peptide activity) ([4]; 2 hrs, lipid conc. 0, without phosphatase): 0.123 absorbance units
- Absorbance at 538 nm (cytolytic peptide activity) ([4]; 2 hrs, lipid conc. 0.004, with phosphatase): 0.132 absorbance units
- Absorbance at 538 nm (cytolytic peptide activity) ([4]; 2 hrs, lipid conc. 0.004, without phosphatase): 0.210 absorbance units
- Absorbance at 538 nm (cytolytic peptide activity) ([4]; 2 hrs, lipid conc. 0.02, with phosphatase): 0.296 absorbance units
- Absorbance at 538 nm (cytolytic peptide activity) ([4]; 2 hrs, lipid conc. 0.02, without phosphatase): 0.602 absorbance units
- Absorbance at 538 nm (cytolytic peptide activity) ([4]; 2 hrs, lipid conc. 0.1, with phosphatase): 0.557 absorbance units
- Absorbance at 538 nm (cytolytic peptide activity) ([4]; 2 hrs, lipid conc. 0.1, without phosphatase): 2.220 absorbance units
- Absorbance at 538 nm (cytolytic peptide activity) ([4]; 18 hrs (d), 1:10-diluted sample, lipid conc. 0, with phosphatase): 1.064 absorbance units
- Absorbance at 538 nm (cytolytic peptide activity) ([4]; 18 hrs (d), 1:10-diluted sample, lipid conc. 0, without phosphatase): 0.055 absorbance units
- Absorbance at 538 nm (cytolytic peptide activity) ([4]; 18 hrs (d), 1:10-diluted sample, lipid conc. 0.004, with phosphatase): 0.056 absorbance units
- Absorbance at 538 nm (cytolytic peptide activity) ([4]; 18 hrs (d), 1:10-diluted sample, lipid conc. 0.004, without phosphatase): 0.097 absorbance units
- Absorbance at 538 nm (cytolytic peptide activity) ([4]; 18 hrs (d), 1:10-diluted sample, lipid conc. 0.02, with phosphatase): 0.094 absorbance units
- Absorbance at 538 nm (cytolytic peptide activity) ([4]; 18 hrs (d), 1:10-diluted sample, lipid conc. 0.02, without phosphatase): 0.274 absorbance units
- Absorbance at 538 nm (cytolytic peptide activity) ([4]; 18 hrs (d), 1:10-diluted sample, lipid conc. 0.1, with phosphatase): 0.252 absorbance units
- Absorbance at 538 nm (cytolytic peptide activity) ([4]; 18 hrs (d), 1:10-diluted sample, lipid conc. 0.1, without phosphatase): 1.018 absorbance units
- Absorbance at 538 nm (cytolytic peptide activity) ([4]; 18 hrs, lipid conc. 0, with phosphatase): 4.000 absorbance units
- Absorbance at 538 nm (cytolytic peptide activity) ([4]; 18 hrs, lipid conc. 0, without phosphatase): 0.158 absorbance units
- Absorbance at 538 nm (cytolytic peptide activity) ([4]; 18 hrs, lipid conc. 0.004, with phosphatase): 0.158 absorbance units
- Absorbance at 538 nm (cytolytic peptide activity) ([4]; 18 hrs, lipid conc. 0.004, without phosphatase): 0.524 absorbance units
- Absorbance at 538 nm (cytolytic peptide activity) ([4]; 18 hrs, lipid conc. 0.02, with phosphatase): 0.524 absorbance units
- Absorbance at 538 nm (cytolytic peptide activity) ([4]; 18 hrs, lipid conc. 0.02, without phosphatase): 2.043 absorbance units
- Absorbance at 538 nm (cytolytic peptide activity) ([4]; 18 hrs, lipid conc. 0.1, with phosphatase): 2.043 absorbance units
